Experiments:
[1] = test system: recombinant NL4-3 virus (Renilla luciferase) in MT-2 cells; assay: HIV cell culture assay (antiviral activity, luciferase readout); format: cell-based; conditions: Renilla, NL43
Outline: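 Antiviral EC50 was derived via the median effect equation from luciferase signal. The signal came from MT-2 cultures infected for 4–5 days with a nef-deleted, Renilla luciferase-expressing NL4-3 reporter virus (made in 293T cells) in the presence of compound dilutions.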

[2] = Compound cytotoxicity, XTT-based colorimetric assay; format: cell-based; conditions: human; uninfected MT2 cells, day 4, XTT
Outline: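 Run under the antiviral-assay protocol but without virus. Viability was read on day 4 and CC50 values were derived from the readout.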

Compound | EC50 [1] [nM] | CC50 at 4 days [2] [nM]
Cc1ncc(F)c(-c2ccc3c(=O)n(-c4ccc(Cl)c5c(NS(C)(=O)=O)nn(C)c45)c([C@H](Cc4cc(F)cc(F)c4)NC(=O)Cn4nc(C(F)F)c5c4C(F)(F)[C@@H]4C[C@H]54)nc3c2)n1 (atropisomer, axis not shown; (P)) [Example 64, N—((S)-1-((3P)-3-(4-chloro-1-methyl-3-(methylsulfonamido)-1H-indazol-7-yl)-7-(5-fluoro-2-methylpyrimidin-4-yl)-4-oxo-3,4-dihydroquinazolin-2-yl)-2-(3,5-difluorophenyl)ethyl)-2-((3bS,4aR)-3-(difluoromethyl)-5,5-difluoro-3b,4,4a,5-tetrahydro-1H-cyclopropa[3,4]cyclopenta[1,2-c]pyrazol-1-yl)acetamide] | 0.093 | > 500
Cc1nc(-c2ccc3c(=O)n(-c4ccc(Cl)c5c(NS(C)(=O)=O)nn(C)c45)c([C@H](Cc4cc(F)cc(F)c4)NC(=O)Cn4nc(C(F)F)c5c4C(F)(F)[C@@H]4C[C@H]54)nc3c2)cc(C(C)C)n1 (atropisomer, axis not shown; (P)) [Example 66, N—((S)-1-((3P)-3-(4-chloro-1-methyl-3-(methylsulfonamido)-1H-indazol-7-yl)-7-(6-isopropyl-2-methylpyrimidin-4-yl)-4-oxo-3,4-dihydroquinazolin-2-yl)-2-(3,5-difluorophenyl)ethyl)-2-((3bS,4aR)-3-(difluoromethyl)-5,5-difluoro-3b,4,4a,5-tetrahydro-1H-cyclopropa[3,4]cyclopenta[1,2-c]pyrazol-1-yl)acetamide] | 0.15 | > 500
COc1cccnc1-c1ccc2c(=O)n(-c3ccc(Cl)c4c(NS(C)(=O)=O)nn(C)c34)c([C@H](Cc3cc(F)cc(F)c3)NC(=O)Cn3nc(C(F)F)c4c3C(F)(F)[C@@H]3C[C@H]43)nc2c1 (atropisomer, axis not shown; (P)) [Example 11, N—((S)-1-((3P)-3-(4-chloro-1-methyl-3-(methylsulfonamido)-1H-indazol-7-yl)-7-(3-methoxypyridin-2-yl)-4-oxo-3,4-dihydroquinazolin-2-yl)-2-(3,5-difluorophenyl)ethyl)-2-((3bS,4aR)-3-(difluoromethyl)-5,5-difluoro-3b,4,4a,5-tetrahydro-1H-cyclopropa[3,4]cyclopenta[1,2-c]pyrazol-1-yl)acetamide] | 0.12 | > 500
CC(C)(C)S(=O)(=O)c1ccccc1-c1ccc2c(=O)n(-c3ccc(Cl)c4c(NS(=O)(=O)C5CC5)nn(CC(F)F)c34)c([C@H](Cc3cc(F)cc(F)c3)NC(=O)Cn3nc(C(F)F)c4c3C(F)(F)[C@@H]3C[C@H]43)nc2c1 (atropisomer, axis not shown) [Example 143] | 0.28 | > 500
Cc1ncnc(C)c1-c1ccc2c(=O)n(-c3ccc(Cl)c4c(NS(C)(=O)=O)nn(C)c34)c([C@H](Cc3cc(F)cc(F)c3)NC(=O)Cn3nc(C(F)F)c4c3C(F)(F)[C@@H]3C[C@H]43)nc2c1 (atropisomer, axis not shown; (P)) [Example 40, N—((S)-1-((3P)-3-(4-chloro-1-methyl-3-(methylsulfonamido)-1H-indazol-7-yl)-7-(4,6-dimethylpyrimidin-5-yl)-4-oxo-3,4-dihydroquinazolin-2-yl)-2-(3,5-difluorophenyl)ethyl)-2-((3bS,4aR)-3-(difluoromethyl)-5,5-difluoro-3b,4,4a,5-tetrahydro-1H-cyclopropa[3,4]cyclopenta[1,2-c]pyrazol-1-yl)acetamide] | 0.053 | > 500
CC(C)(C)S(=O)(=O)c1cccc(-c2ccc3c(=O)n(-c4ccc(Cl)c5c(NS(C)(=O)=O)nn(CC(F)F)c45)c([C@H](Cc4cc(F)cc(F)c4)NC(=O)Cn4nc(C(F)F)c5c4C(F)(F)[C@@H]4C[C@H]54)nc3c2)c1 (atropisomer, axis not shown) [Example 127] | 0.14 | > 500
Cc1ccc(-n2c([C@H](Cc3cc(F)cc(F)c3)NC(=O)Cn3nc(C(F)F)c4c3C(F)(F)[C@@H]3C[C@H]43)nc3cc(-c4ccccc4S(=O)(=O)C(C)(C)C)ccc3c2=O)c2c1c(NS(=O)(=O)C1CC1)nn2CC(F)F (atropisomer, axis not shown) [Example 142, N-[(1S)-1-{3-[3-cyclopropanesulfonamido-1-(2,2-difluoroethyl)-4-methyl-1H-indazol-7-yl]-7-[2-(2-methylpropane-2-sulfonyl)phenyl]-4-oxo-3,4-dihydroquinazolin-2-yl}-2-(3,5-difluorophenyl)ethyl]-2-[(2S,4R)-9-(difluoromethyl)-5,5-difluoro-7,8-diazatricyclo[4.3.0.0^2,^4]nona-1(6),8-dien-7-yl]acetamide] | 0.38 | > 500
CCc1cc(C)nc(-c2ccc3c(=O)n(-c4ccc(Cl)c5c(NS(=O)(=O)C6CC6)nn(CC(F)F)c45)c([C@H](Cc4cc(F)cc(F)c4)NC(=O)Cn4nc(C(F)F)c5c4C(F)(F)[C@@H]4C[C@H]54)nc3c2)n1 (atropisomer, axis not shown; (P)) [Example 82, N—((S)-1-((3P)-3-(4-chloro-3-(cyclopropanesulfonamido)-1-(2,2-difluoroethyl)-1H-indazol-7-yl)-7-(4-ethyl-6-methylpyrimidin-2-yl)-4-oxo-3,4-dihydroquinazolin-2-yl)-2-(3,5-difluorophenyl)ethyl)-2-((3bS,4aR)-3-(difluoromethyl)-5,5-difluoro-3b,4,4a,5-tetrahydro-1H-cyclopropa[3,4]cyclopenta[1,2-c]pyrazol-1-yl)acetamide] | 0.25 | > 500
COc1ncc(-c2ccc3c(=O)n(-c4ccc(Cl)c5c(NS(=O)(=O)C6CC6)nn(CC(F)F)c45)c([C@H](Cc4cc(F)cc(F)c4)NC(=O)Cn4nc(C(F)F)c5c4C(F)(F)[C@@H]4C[C@H]54)nc3c2)cn1 (atropisomer, axis not shown) [Example 99] | 0.089 | > 500
Cn1nc(NS(C)(=O)=O)c2c(Cl)ccc(-n3c([C@H](Cc4cc(F)cc(F)c4)NC(=O)Cn4nc(C(F)F)c5c4C(F)(F)[C@@H]4C[C@H]54)nc4cc(-c5cc(C(F)(F)F)ccn5)ccc4c3=O)c21 (atropisomer, axis not shown; (P)) [Example 80, N—((S)-1-((3P)-3-(4-chloro-1-methyl-3-(methylsulfonamido)-1H-indazol-7-yl)-4-oxo-7-(4-(trifluoromethyl)pyridin-2-yl)-3,4-dihydroquinazolin-2-yl)-2-(3,5-difluorophenyl)ethyl)-2-((3bS,4aR)-3-(difluoromethyl)-5,5-difluoro-3b,4,4a,5-tetrahydro-1H-cyclopropa[3,4]cyclopenta[1,2-c]pyrazol-1-yl)acetamide] | 0.2 | > 100
Cn1nc(NS(C)(=O)=O)c2c(Cl)ccc(-n3c([C@H](Cc4cc(F)cc(F)c4)NC(=O)Cn4nc(C(F)F)c5c4C(F)(F)[C@@H]4C[C@H]54)nc4cc(-c5cccc(C(F)F)n5)ccc4c3=O)c21 (atropisomer, axis not shown) [Example 117] | 0.069 | > 500

— patent US11541055B2, “Inhibitors of human immunodeficiency virus replication” (ViiV Healthcare UK (No. 5) LIMITED, priority 2018, dated 2023)
